Tests used:
Assay type in all cases: functional
[1] = system: MCF7; test: Growth inhibition of human MCF7 cells
[2] = system: M21; test: Cell cycle arrest in human M21 cells assessed as accumulation at G2/M phase at 24 uM after 24 hrs
[3] = system: M21; test: Cell cycle arrest in human M21 cells assessed as accumulation at G1 phase at 200 uM after 24 hrs
[4] = system: M21; test: Induction of apoptosis in human M21 cells at 80 uM after 24 hrs
[5] = system: M21; test: Cell cycle arrest in human M21 cells assessed as accumulation at G2/M phase at 200 uM after 24 hrs
[6] = system: M21; test: Growth inhibition of human M21 cells
[7] = system: M21; test: Cell cycle arrest in human M21 cells assessed as accumulation at S phase at 24 uM after 24 hrs
[8] = system: M21; test: Cell cycle arrest in human M21 cells assessed as accumulation at S phase at 80 uM after 24 hrs
[9] = system: M21; test: Cell cycle arrest in human M21 cells assessed as accumulation at G1 phase at 24 uM after 24 hrs
[10] = system: M21; test: Cell cycle arrest in human M21 cells assessed as accumulation at S phase at 200 uM after 24 hrs
[11] = system: HT-29; test: Growth inhibition of human HT29 cells
[12] = system: M21; test: Induction of apoptosis in human M21 cells at 24 uM after 24 hrs
[13] = system: M21; test: Cell cycle arrest in human M21 cells assessed as accumulation at G1 phase at 80 uM after 24 hrs
[14] = system: M21; test: Induction of apoptosis in human M21 cells at 200 uM after 24 hrs
[15] = system: M21; test: Cell cycle arrest in human M21 cells assessed as accumulation at G2/M phase at 80 uM after 24 hrs
[16] = system: MDA-MB-231; test: Growth inhibition of human MDA-MB-231 cells
[17] = system: M21; test: Cell cycle arrest in human M21 cells assessed as accumulation at S phase at 6 uM after 24 hrs
[18] = system: M21; test: Cell cycle arrest in human M21 cells assessed as accumulation at G1 phase at 53 uM after 24 hrs
[19] = system: M21; test: Induction of apoptosis in human M21 cells at 21 uM after 24 hrs
[20] = system: M21; test: Cell cycle arrest in human M21 cells assessed as accumulation at G2/M phase at 6 uM after 24 hrs
[21] = system: M21; test: Cell cycle arrest in human M21 cells assessed as accumulation at G2/M phase at 21 uM after 24 hrs
[22] = system: M21; test: Cell cycle arrest in human M21 cells assessed as accumulation at S phase at 21 uM after 24 hrs
[23] = system: M21; test: Induction of apoptosis in human M21 cells at 53 uM after 24 hrs
[24] = system: M21; test: Induction of apoptosis in human M21 cells at 6 uM after 24 hrs
[25] = system: M21; test: Cell cycle arrest in human M21 cells assessed as accumulation at G1 phase at 21 uM after 24 hrs
[26] = system: M21; test: Cell cycle arrest in human M21 cells assessed as accumulation at S phase at 53 uM after 24 hrs
[27] = system: M21; test: Cell cycle arrest in human M21 cells assessed as accumulation at G2/M phase at 53 uM after 24 hrs
[28] = system: M21; test: Cell cycle arrest in human M21 cells assessed as accumulation at G1 phase at 6 uM after 24 hrs
[29] = system: M21; test: Cell cycle arrest in human M21 cells assessed as accumulation at G2/M phase at 0.125 uM after 24 hrs
[30] = system: M21; test: Cell cycle arrest in human M21 cells assessed as accumulation at G2/M phase at 0.015 uM after 24 hrs
[31] = system: M21; test: Induction of apoptosis in human M21 cells at 0.125 uM after 24 hrs
[32] = system: M21; test: Cell cycle arrest in human M21 cells assessed as accumulation at G2/M phase at 0.050 uM after 24 hrs
[33] = system: M21; test: Cell cycle arrest in human M21 cells assessed as accumulation at G1 phase at 0.125 uM after 24 hrs
[34] = system: M21; test: Induction of apoptosis in human M21 cells at 0.050 uM after 24 hrs
[35] = system: M21; test: Cell cycle arrest in human M21 cells assessed as accumulation at S phase at 0.125 uM after 24 hrs
[36] = system: M21; test: Cell cycle arrest in human M21 cells assessed as accumulation at G1 phase at 0.050 uM after 24 hrs
[37] = system: M21; test: Cell cycle arrest in human M21 cells assessed as accumulation at S phase at 0.050 uM after 24 hrs
[38] = system: M21; test: Induction of apoptosis in human M21 cells at 0.015 uM after 24 hrs
[39] = system: M21; test: Cell cycle arrest in human M21 cells assessed as accumulation at G1 phase at 0.015 uM after 24 hrs
[40] = system: M21; test: Cell cycle arrest in human M21 cells assessed as accumulation at S phase at 0.015 uM after 24 hrs

Row | Structure (SMILES) | GI50 [1] | Activity [2] | Activity [3] | Activity [4] | Activity [5] | GI50 [6] | Activity [7] | Activity [8] | Activity [9] | Activity [10] | GI50 [11] | Activity [12] | Activity [13] | Activity [14] | Activity [15] | GI50 [16] | other results
1 | COc1ccc(/C=C/c2cccc(NC(=O)NCCCl)c2)cc1O | 28.2 µM | 22.5% | 40.3% | 5.3% | 19.6% | 22.7 µM | 16.6% | 18.7% | 37.2% | 19% | 68.2 µM | 8.3% | 38.1% | 4.5% | 21.3% | 16.5 µM | 
2 | COc1ccc(CCc2cccc(NC(=O)NCCCl)c2)cc1O | 11.6 µM | 27.5% | 13.5% | 18.7% | 42.6% | 4.7 µM | 20.7% | 16.4% | 23.8% | 15.7% | 9.6 µM | 12.5% | 15.2% | 6.9% | 34.9% | 4.1 µM | 
3 | COc1ccc(/C=C\c2cccc(NC(=O)NCCCl)c2)cc1O | 4.5 µM | 12.5% | 14.7% | 15% | 41.3% | 4 µM | 12.3% | 16.4% | 22.1% | 10.5% | 9.2 µM | 44.8% | 18.4% | 21.7% | 35.5% | 4.9 µM | 
4 | COc1ccc(CCc2ccc(NC(=O)NCCCl)cc2)cc1O | 15.9 µM | 30.2% | 7.2% | 2.3% | 47.9% | 16.3 µM | 9.9% | 13.4% | 37.8% | 16.3% | 15.3 µM | 2.8% | 15.5% | 2.6% | 45.1% | 11 µM | 
5 | COc1ccc(/C=C\c2ccc(NC(=O)NCCCl)cc2)cc1O | 1.65 µM |  |  |  |  | 0.97 µM |  |  |  |  | 2.4 µM |  |  |  |  | 0.86 µM | Activity [17]: 15.8%; Activity [18]: 8.1%; Activity [19]: 17.6%; Activity [20]: 43.3%; Activity [21]: 47.2%; Activity [22]: 9.7%; Activity [23]: 9.7%; Activity [24]: 10.7%; Activity [25]: 6.8%; Activity [26]: 12.5%; Activity [27]: 48%; Activity [28]: 11.4%
6 | COc1ccc(/C=C/c2ccc(NC(=O)NCCCl)cc2)cc1O | 14 µM | 19.5% | 37.4% | 5.5% | 12.4% | 8.38 µM | 12.9% | 15.6% | 38.1% | 21.9% | 1.18 µM | 9.9% | 38.8% | 11.9% | 21% | 17.4 µM | 
7 | O=C(NCCCl)Nc1cccc(CCCCCO)c1 | 0.48 µM |  |  |  |  | 0.27 µM |  |  |  |  | 0.16 µM |  |  |  |  | 0.23 µM | 
8 | COc1ccc(/C=C\c2cc(OC)c(OC)c(OC)c2)cc1O [COMBRETASTATIN A4] | 0.003 µM |  |  |  |  | 0.002 µM |  |  |  |  | 0.089 µM |  |  |  |  | 0.002 µM | Activity [29]: 45.4%; Activity [30]: 46.4%; Activity [31]: 11.6%; Activity [32]: 40.6%; Activity [33]: 8.2%; Activity [34]: 15.8%; Activity [35]: 14.7%; Activity [36]: 10.1%; Activity [37]: 14.6%; Activity [38]: 10.7%; Activity [39]: 9.4%; Activity [40]: 15%

— ChEMBL document CHEMBL1139148, “N-Phenyl-N'-(2-chloroethyl)urea analogues of combretastatin A-4: Is the N-phenyl-N'-(2-chloroethyl)urea pharmacophore mimicking the trimethoxy phenyl moiety?” (2007)
